Earlier results in article PMC4303307 (Biochemistry, 2014).
Where no end group is shown, it is not given here.

Tested on: γ-crystallin
Conditions: cited from earlier work

MAC peptide with an acetylated Lys 70: the MAC peptide with an acetylated Lys 70 used by Nahomi et al. (K(Ac)FVIFLDVKHFSPEDLTVK; UniProt P02489 70-88, looked up, fragment)
chaperone activity of acetylated Lys vs Asp at the N-terminal end: enhanced chaperone activity
increase of chaperone activity over nonacetylated peptide (in vitro, γ-crystallin substrate): ~15%
